Values of other authors in patent US11771784B2, “Material, device, and method for deactivating pathogen in aerosol, and methods for manufacturing thereof” (priority 2016, dated 2023).

Conditions: in water

Row | Compound | maximum solubility limit
1 | [Cl-].[K+] [potassium chloride] | about 355 g/l
2 | (sodium/potassium) tartrates | about 660 g/l
